This is an account of results in patent US20250235543A1, “MODIFIED PROTEINS AND PROTEIN DEGRADERS” (Cullgen (Shanghai), Inc., priority 2021, published 2025).

The test system of one experiment is cyclin D1. Description: Cyclin D1 percentage degradation in Calu-1 cells (immunoblotting). Type of experiment: cell-based. The settings on record: 16 hours. A digest of the protocol:
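Cyclin D1 degradation was assessed by western blot. Clarified lysates, obtained by RIPA lysis with inhibitors and centrifugation at 13,000 rpm, were normalized by BCA protein assay and separated by SDS-PAGE. Bands were detected with Western ECL Substrate on a Bio-Rad ChemiDoc MP Imaging system and quantified in Image Lab software to derive percentage degradation.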
(In general: Immunoblotting shows a protein as a band on a membrane.)

The target in a further experiment is T1, CDK4 (Homo sapiens, UniProt P11802).
T1 construct: endogenous in cells; host or cells: Calu-1
T1 sequence (P11802 2-303 limits assumed): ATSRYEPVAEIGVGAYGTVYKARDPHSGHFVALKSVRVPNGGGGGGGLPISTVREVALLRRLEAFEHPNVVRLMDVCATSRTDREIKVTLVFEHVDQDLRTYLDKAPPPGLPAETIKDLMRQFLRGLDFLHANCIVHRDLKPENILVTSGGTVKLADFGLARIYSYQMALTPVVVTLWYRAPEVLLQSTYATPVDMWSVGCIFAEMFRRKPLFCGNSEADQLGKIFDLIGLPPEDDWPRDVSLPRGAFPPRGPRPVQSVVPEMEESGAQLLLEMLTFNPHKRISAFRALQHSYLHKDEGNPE
T1 sequence (P24385 whole entry partner): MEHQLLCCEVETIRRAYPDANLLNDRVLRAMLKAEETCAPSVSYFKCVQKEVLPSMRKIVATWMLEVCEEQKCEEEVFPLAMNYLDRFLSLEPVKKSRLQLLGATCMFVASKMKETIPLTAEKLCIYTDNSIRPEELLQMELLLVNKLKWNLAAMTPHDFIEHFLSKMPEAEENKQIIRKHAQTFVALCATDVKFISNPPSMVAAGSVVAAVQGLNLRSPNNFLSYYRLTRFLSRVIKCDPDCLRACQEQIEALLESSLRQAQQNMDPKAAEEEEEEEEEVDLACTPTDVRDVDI
T1 sequence (Q16531 2-1140 limits assumed, further chain): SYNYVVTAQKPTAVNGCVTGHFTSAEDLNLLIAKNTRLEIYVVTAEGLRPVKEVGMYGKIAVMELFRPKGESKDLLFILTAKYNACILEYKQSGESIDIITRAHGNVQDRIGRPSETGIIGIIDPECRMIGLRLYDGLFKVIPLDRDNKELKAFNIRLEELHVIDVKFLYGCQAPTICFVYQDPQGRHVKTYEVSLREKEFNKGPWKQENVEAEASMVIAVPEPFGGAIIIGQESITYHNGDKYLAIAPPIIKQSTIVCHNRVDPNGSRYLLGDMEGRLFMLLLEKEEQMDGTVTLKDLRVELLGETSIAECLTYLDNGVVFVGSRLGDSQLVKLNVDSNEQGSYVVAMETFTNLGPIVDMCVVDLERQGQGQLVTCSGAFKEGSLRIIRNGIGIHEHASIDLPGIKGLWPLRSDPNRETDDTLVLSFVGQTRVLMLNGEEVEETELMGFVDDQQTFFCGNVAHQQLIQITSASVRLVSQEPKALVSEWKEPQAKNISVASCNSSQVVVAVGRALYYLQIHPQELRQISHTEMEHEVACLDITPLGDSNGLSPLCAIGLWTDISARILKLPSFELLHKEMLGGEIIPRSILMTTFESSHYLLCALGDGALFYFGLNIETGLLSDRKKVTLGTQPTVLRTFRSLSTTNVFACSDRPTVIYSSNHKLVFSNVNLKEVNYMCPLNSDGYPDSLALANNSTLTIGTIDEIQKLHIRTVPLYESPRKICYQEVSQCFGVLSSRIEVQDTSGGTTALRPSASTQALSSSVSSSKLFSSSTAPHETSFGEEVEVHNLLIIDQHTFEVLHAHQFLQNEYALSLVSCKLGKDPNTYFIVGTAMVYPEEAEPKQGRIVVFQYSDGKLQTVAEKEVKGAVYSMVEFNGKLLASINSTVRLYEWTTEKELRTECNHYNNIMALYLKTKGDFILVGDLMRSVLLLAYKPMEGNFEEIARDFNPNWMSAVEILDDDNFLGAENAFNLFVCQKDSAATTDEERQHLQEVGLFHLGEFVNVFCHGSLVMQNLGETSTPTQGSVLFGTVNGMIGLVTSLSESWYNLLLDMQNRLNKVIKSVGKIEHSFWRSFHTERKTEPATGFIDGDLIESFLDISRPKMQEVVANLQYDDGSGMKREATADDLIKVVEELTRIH
The experiment in a line: CDK4 percentage degradation in Calu-1 cells (immunoblotting). The conditions noted are these: for inhibition at 10 µM: read-out: CDK4 Degradation (10 μM); for inhibition at 0.2 µM: read-out: CDK4 Degradation (200 nM). Format: cell-based. A digest of the protocol: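 CDK4 degradation was measured by immunoblotting. Cells were washed in cold PBS and lysed in RIPA buffer with inhibitors for 30 min at 4° C., then spun at 13,000 rpm to clear. After BCA protein determination, lysates were heated at 99° C. for 5 min in Laemmli buffer, resolved on SDS-PAGE, imaged on a ChemiDoc MP with ECL substrate, and band intensities quantified.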

Read-outs that look alike come from different tables or passages of the source. A value given as a limit tells only on which side of the number the result lay.

As to `Cc1nc(NC(=O)c2ccccc2NC(=O)CCCCCCCCNC(=O)CN2CCN(c3ccc(Nc4ncc5cc(C(=O)N(C)C)n(C6CCCC6)c5n4)nc3)CC2)sc1C` [CPD-293, 7-Cyclopentyl-2-((5-(4-(2-((9-((2-((4,5-dimethylthiazol-2-yl)carbamoyl)phenyl)amino)-9-oxononyl)amino)-2-oxoethyl)piperazin-1-yl)pyridin-2-yl)amino)-N,N-dimethyl-7H-pyrrolo[2,3-d]pyrimidine-6-carboxamide], in the experiment with cyclin D1, the “CyclinD1 Degradation (10 μM)” value is listed as “A (protein percentage degradation >= 80%)”. At CDK4 (Calu-1 cells, 16 hours), the inhibition at 10 µM is 50 to 80%.

With `CC(=O)c1c(C)c2cnc(Nc3ccc(N4CCN(CC(=O)NCCOCCOCCOCCOCCNC(=O)CNc5ccc(C(=O)Nc6ncc(C)s6)c(C)c5)CC4)cn3)nc2n(C2CCCC2)c1=O` [CPD-013, 4-((20-(4-(6-((6-Acetyl-8-cyclopentyl-5-methyl-7-oxo-7,8-dihydropyrido[2,3-d]pyrimidin-2-yl)amino)pyridin-3-yl)piperazin-1-yl)-2,19-dioxo-6,9,12,15-tetraoxa-3,18-diazaicosyl)amino)-2-methyl-N-(5-methylthiazol-2-yl)benzamide], in the experiment on cyclin D1, the “CyclinD1 Degradation (200 nM)” value is “D (protein percentage degradation <30%)”. The inhibition at 0.2 µM at CDK4 (Calu-1 cells, 200 nM, 16 hours) is under 30%.

On to `CC(=O)c1c(C)c2cnc(Nc3ccc(N4CCN(CC(=O)NCCOCCOCCC(=O)Nc5ccccc5C(=O)Nc5ccc(C)cn5)CC4)cn3)nc2n(C2CCCC2)c1=O` [CPD-061, 2-(3-(2-(2-(2-(4-(6-((6-Acetyl-8-cyclopentyl-5-methyl-7-oxo-7,8-dihydropyrido[2,3-d]pyrimidin-2-yl)amino)pyridin-3-yl)piperazin-1-yl)acetamido)ethoxy)ethoxy)propanamido)-N-(5-methylpyridin-2-yl)benzamide], for which the “CyclinD1 Degradation (200 nM)” value in the experiment with cyclin D1 is on record as “A (protein percentage degradation >=80%)”. Also, at CDK4 (Calu-1 cells, 200 nM, 16 hours), the inhibition at 0.2 µM fell in the range of 50 to 80%.

Regarding `CC(=O)c1c(C)c2cnc(Nc3ccc(N4CCN(CC(=O)NCCCCCNC(=O)CNc5ccc(C(=O)Nc6ncc(C)s6)c(C)c5)CC4)cn3)nc2n(C2CCCC2)c1=O` [CPD-015, 4-((2-((5-(2-(4-(6-((6-Acetyl-8-cyclopentyl-5-methyl-7-oxo-7,8-dihydropyrido[2,3-d]pyrimidin-2-yl)amino)pyridin-3-yl)piperazin-1-yl)acetamido)pentyl)amino)-2-oxoethyl)amino)-2-methyl-N-(5-methylthiazol-2-yl)benzamide], in the experiment with cyclin D1, the “CyclinD1 Degradation (200 nM)” value is “D (protein percentage degradation <30%)”. For the same molecule, on CDK4 (Calu-1 cells, 200 nM, 16 hours), the inhibition at 0.2 µM was under 30%.

On to `CC(=O)c1c(C)c2cnc(Nc3ccc(N4CCN(C(=O)CCCCCCCCC(=O)Nc5ccccc5C(=O)Nc5nc(C)c(C)s5)CC4)cn3)nc2n(C2CCCC2)c1=O` [CPD-162, 2-(10-(4-(6-((6-Acetyl-8-cyclopentyl-5-methyl-7-oxo-7,8-dihydropyrido[2,3-d]pyrimidin-2-yl)amino)pyridin-3-yl)piperazin-1-yl)-10-oxodecanamido)-N-(4,5-dimethylthiazol-2-yl)benzamide], for which the “CyclinD1 Degradation (200 nM)” value with cyclin D1 was “C (protein percentage degradation <50%, and >=30%)”. Further, the inhibition at 0.2 µM at CDK4 (Calu-1, 16 h) was under 30%.

Consider `CC(=O)c1c(C)c2cnc(Nc3ccc(N4CCN(CC(=O)NCCOCCOCCC(=O)Nc5ccccc5C(=O)Nc5cnc(C)cn5)CC4)cn3)nc2n(C2CCCC2)c1=O` [CPD-054, 2-(3-(2-(2-(2-(4-(6-((6-Acetyl-8-cyclopentyl-5-methyl-7-oxo-7,8-dihydropyrido[2,3-d]pyrimidin-2-yl)amino)pyridin-3-yl)piperazin-1-yl)acetamido)ethoxy)ethoxy)propanamido)-N-(5-methylpyrazin-2-yl)benzamide], for which the “CyclinD1 Degradation (200 nM)” value with cyclin D1 is listed as “A (protein percentage degradation >=80%)”. The inhibition at 0.2 µM on CDK4 (Calu-1 cells, 200 nM, 16 hours) fell in the range of 50 to 80%.

For the molecule `CC(=O)c1c(C)c2cnc(Nc3ccc(N4CCN(CC(=O)NCCOCCOCCC(=O)Nc5ccccc5C(=O)Nc5cn(C)cn5)CC4)cn3)nc2n(C2CCCC2)c1=O` [CPD-063, 2-(3-(2-(2-(2-(4-(6-((6-Acetyl-8-cyclopentyl-5-methyl-7-oxo-7,8-dihydropyrido[2,3-d]pyrimidin-2-yl)amino)pyridin-3-yl)piperazin-1-yl)acetamido)ethoxy)ethoxy)propanamido)-N-(1-methyl-1H-imidazol-4-yl)benzamide], the “CyclinD1 Degradation (200 nM)” value with cyclin D1 was “D (protein percentage degradation <30%)”. Moreover, the inhibition at 0.2 µM on CDK4 (Calu-1 cells, 200 nM, 16 hours) was under 30%.

For `CC(=O)c1c(C)c2cnc(Nc3ccc(N4CCN(CC(=O)NCCCC(=O)Nc5ccccc5C(=O)Nc5nc(C)c(C)s5)CC4)cn3)nc2n(C2CCCC2)c1=O` [CPD-171, 2-(4-(2-(4-(6-((6-Acetyl-8-cyclopentyl-5-methyl-7-oxo-7,8-dihydropyrido[2,3-d]pyrimidin-2-yl)amino)pyridin-3-yl)piperazin-1-yl)acetamido)butanamido)-N-(4,5-dimethylthiazol-2-yl)benzamide], the “CyclinD1 Degradation (200 nM)” value in the experiment on cyclin D1 is listed as “D (protein percentage degradation <30%)”. Further, the inhibition at 0.2 µM on CDK4 (Calu-1 cells, 200 nM, 16 hours) was under 30%.

Take `CC(=O)c1c(C)c2cnc(Nc3ccc(N4CCN(CC(=O)NCCOCCOCCC(=O)Nc5ccccc5CNc5nc(C)c(C)s5)CC4)cn3)nc2n(C2CCCC2)c1=O` [CPD-154, 3-(2-(2-(2-(4-(6-((6-Acetyl-8-cyclopentyl-5-methyl-7-oxo-7,8-dihydropyrido[2,3-d]pyrimidin-2-yl)amino)pyridin-3-yl)piperazin-1-yl)acetamido)ethoxy)ethoxy)-N-(2-(((4,5-dimethylthiazol-2-yl)amino)methyl)phenyl)propanamide]: the “CyclinD1 Degradation (200 nM)” value in the experiment on cyclin D1 is “D (protein percentage degradation <30%)”. Further, the inhibition at 0.2 µM on CDK4 (Calu-1 cells, 200 nM, 16 hours) was under 30%.

Consider `CC(=O)c1c(C)c2cnc(Nc3ccc(N4CCN(CC(=O)NCCOCCOCCC(=O)Nc5ccccc5C(=O)Nc5nc(C6CC6)c(C)s5)CC4)cn3)nc2n(C2CCCC2)c1=O` [CPD-057, 2-(3-(2-(2-(2-(4-(6-((6-Acetyl-8-cyclopentyl-5-methyl-7-oxo-7,8-dihydropyrido[2,3-d]pyrimidin-2-yl)amino)pyridin-3-yl)piperazin-1-yl)acetamido)ethoxy)ethoxy)propanamido)-N-(4-cyclopropyl-5-methylthiazol-2-yl)benzamide], for which the “CyclinD1 Degradation (200 nM)” value in the experiment with cyclin D1 is “A (protein percentage degradation >=80%)”. At CDK4 (Calu-1 cells, 200 nM, 16 hours), the inhibition at 0.2 µM was 50 to 80%.

Turning to `CNc1ccc(C(=O)Nc2ccc(C)cn2)c(NC(=O)CCOCCOCCNC(=O)CN2CCN(c3ccc(Nc4ncc5c(C)c(C(C)=O)c(=O)n(C6CCCC6)c5n4)nc3)CC2)c1` [CPD-339, 2-(3-(2-(2-(2-(4-(6-((6-Acetyl-8-cyclopentyl-5-methyl-7-oxo-7,8-dihydropyrido[2,3-d]pyrimidin-2-yl)amino)pyridin-3-yl)piperazin-1-yl)acetamido)ethoxy)ethoxy)propanamido)-4-(methylamino)-N-(5-methylpyridin-2-yl)benzamide], the “CyclinD1 Degradation (200 nM)” value in the experiment with cyclin D1 was “A (protein percentage degradation >=80%)”. Further, the inhibition at 0.2 µM on CDK4 (Calu-1 cells, 200 nM, 16 hours) was over 80%.

For `CC(=O)c1c(C)c2cnc(Nc3ccc(N4CCN(C(=O)CCCCCNc5cccc(C(=O)Nc6nc(C)c(C)s6)c5C)CC4)cn3)nc2n(C2CCCC2)c1=O` [CPD-137, 3-((6-(4-(6-((6-Acetyl-8-cyclopentyl-5-methyl-7-oxo-7,8-dihydropyrido[2,3-d]pyrimidin-2-yl)amino)pyridin-3-yl)piperazin-1-yl)-6-oxohexyl)amino)-N-(4,5-dimethylthiazol-2-yl)-2-methylbenzamide], the “CyclinD1 Degradation (200 nM)” value with cyclin D1 is “D (protein percentage degradation <30%)”. Further, the inhibition at 0.2 µM on CDK4 (Calu-1, 16 h) was under 30%.

In the case of `CC(=O)c1c(C)c2cnc(Nc3ccc(N4CCN(CC(=O)NCCOCCOCCC(=O)Nc5ccccc5C(=O)Nc5nc(C6CCN(C)CC6)c(C)s5)CC4)cn3)nc2n(C2CCCC2)c1=O` [CPD-080, 2-(3-(2-(2-(2-(4-(6-((6-Acetyl-8-cyclopentyl-5-methyl-7-oxo-7,8-dihydropyrido[2,3-d]pyrimidin-2-yl)amino)pyridin-3-yl)piperazin-1-yl)acetamido)ethoxy)ethoxy)propanamido)-N-(5-methyl-4-(1-methylpiperidin-4-yl)thiazol-2-yl)benzamide], the “CyclinD1 Degradation (200 nM)” value in the experiment with cyclin D1 is “D (protein percentage degradation <30%)”. The inhibition at 0.2 µM on CDK4 (Calu-1 cells, 200 nM, 16 hours) is under 30%.

As to `Cc1nc(NC(=O)c2ccccc2NC(=O)CNC(=O)CN2CCN(Cc3ccc(Nc4ncc(F)c(-c5cc(F)c6nc(C)n(C(C)C)c6c5)n4)nc3)CC2)sc1C` [CPD-272, N-(4,5-Dimethylthiazol-2-yl)-2-(2-(2-(4-((6-((5-fluoro-4-(4-fluoro-1-isopropyl-2-methyl-1H-benzo[d]imidazol-6-yl)pyrimidin-2-yl)amino)pyridin-3-yl)methyl)piperazin-1-yl)acetamido)acetamido)benzamide], the “CyclinD1 Degradation (10 μM)” value with cyclin D1 is listed as “D (protein percentage degradation < 30%)”. In addition, the inhibition at 10 µM on CDK4 (Calu-1 cells, 16 hours) was under 30%.

As to `Cc1nc(NC(=O)c2ccccc2NC(=O)CCCCNC(=O)CN2CCN(Cc3ccc(Nc4ncc(F)c(-c5cc(F)c6nc(C)n(C(C)C)c6c5)n4)nc3)CC2)sc1C` [CPD-275, N-(4,5-Dimethylthiazol-2-yl)-2-(5-(2-(4-((6-((5-fluoro-4-(4-fluoro-1-isopropyl-2-methyl-1H-benzo[d]imidazol-6-yl)pyrimidin-2-yl)amino)pyridin-3-yl)methyl)piperazin-1-yl)acetamido)pentanamido)benzamide], the “CyclinD1 Degradation (10 μM)” value with cyclin D1 was “D (protein percentage degradation < 30%)”. On CDK4 (Calu-1 cells, 16 hours), the inhibition at 10 µM is under 30%.
